5 compounds from ChEMBL document CHEMBL1145851, “Novel substituted pyridinyl imidazoles as potent anticytokine agents with low activity against hepatic cytochrome P450 enzymes” (J Med Chem, 2003) can be followed below.

Activity calls are given as the source filed them. No cut-off for these calls is given here.

The target in data set [1] is T1, MAP kinase p38 (Homo sapiens, UniProt O15264+Q15759+Q16539+P53778). The experiment in a line: Inhibition of p38-related TNF-alpha release by PBMC cells at 10 e-4 to 10 e-8 M (no activity). It is filed as functional, cell-based.
Data set [2] has as its target T1, MAP kinase p38. The experiment in a line: Inhibition of p38-related IL1-beta release by PBMC cells at 10 e-4 to 10 e-8 M (no activity). It is filed as functional, cell-based.
Data set [3] concerns the target T1, MAP kinase p38. The experiment in a line: Inhibitory activity against induction of IL-1-beta release in PBMCs. It is filed as functional.
Data set [4] concerns the target T1, MAP kinase p38. The experiment in a line: Inhibitory activity against mitogen-activated protein kinase p38 at 10 e-4 to 10 e-8 M concentration. It is filed as protein assay.
Data set [5] deals with T2, CYP1A2 (Homo sapiens, UniProt P05177).
T2 sequence (P05177 whole entry): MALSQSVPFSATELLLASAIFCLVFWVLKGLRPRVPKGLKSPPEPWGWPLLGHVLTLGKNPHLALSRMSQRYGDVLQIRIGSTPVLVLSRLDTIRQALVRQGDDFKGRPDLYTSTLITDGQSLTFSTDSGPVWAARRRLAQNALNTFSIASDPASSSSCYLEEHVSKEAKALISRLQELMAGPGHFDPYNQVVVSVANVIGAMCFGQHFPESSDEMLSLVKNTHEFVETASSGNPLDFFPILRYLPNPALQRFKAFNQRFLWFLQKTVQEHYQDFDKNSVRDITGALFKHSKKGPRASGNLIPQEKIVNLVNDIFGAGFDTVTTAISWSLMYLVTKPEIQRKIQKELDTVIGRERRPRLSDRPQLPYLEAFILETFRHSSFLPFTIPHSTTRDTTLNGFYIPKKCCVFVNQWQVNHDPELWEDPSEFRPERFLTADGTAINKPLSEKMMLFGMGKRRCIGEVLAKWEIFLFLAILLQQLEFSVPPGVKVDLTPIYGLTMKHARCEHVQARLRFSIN
The experiment in a line: Inhibition of Cytochrome P450 1A2 at 10 uM. It is filed as ADME.

Data set [6] concerns the target CYP2D6 (Homo sapiens, UniProt P10635). The experiment in a line: Inhibition of Cytochrome P450 2D6 at 10 uM. It is filed as ADME.
The target in data set [7] is CYP3A4 (Homo sapiens, UniProt P08684). The experiment in a line: Inhibition of Cytochrome P450 3A4 at 10 uM. It is filed as ADME.
Data set [8] deals with CYP2C19 (Homo sapiens, UniProt P33261). The experiment in a line: Inhibition of Cytochrome P450 2C19 at 10 uM. It is filed as ADME.
Data set [9] has as its target T1, MAP kinase p38. The experiment in a line: Inhibition of p38-related TNF-alpha release by whole blood cells at 10 e-4 to 10 e-8 M. It is filed as functional.
Data set [10] deals with CYP2C9 (Homo sapiens, UniProt P11712). The experiment in a line: Inhibition of Cytochrome P450 2C9 at 10 uM. It is filed as ADME.
In data set [11] the target is T1, MAP kinase p38. The experiment in a line: Inhibitory activity against TNF-alpha release in PBM cells. It is filed as functional, cell-based.
In data set [12] the target is T1, MAP kinase p38. The experiment in a line: Inhibition of p38-related IL1-beta release by whole blood cells at 10 e-4 to 10 e-8 M. It is filed as functional.

Sequence of CYP2C9 (P11712 whole entry): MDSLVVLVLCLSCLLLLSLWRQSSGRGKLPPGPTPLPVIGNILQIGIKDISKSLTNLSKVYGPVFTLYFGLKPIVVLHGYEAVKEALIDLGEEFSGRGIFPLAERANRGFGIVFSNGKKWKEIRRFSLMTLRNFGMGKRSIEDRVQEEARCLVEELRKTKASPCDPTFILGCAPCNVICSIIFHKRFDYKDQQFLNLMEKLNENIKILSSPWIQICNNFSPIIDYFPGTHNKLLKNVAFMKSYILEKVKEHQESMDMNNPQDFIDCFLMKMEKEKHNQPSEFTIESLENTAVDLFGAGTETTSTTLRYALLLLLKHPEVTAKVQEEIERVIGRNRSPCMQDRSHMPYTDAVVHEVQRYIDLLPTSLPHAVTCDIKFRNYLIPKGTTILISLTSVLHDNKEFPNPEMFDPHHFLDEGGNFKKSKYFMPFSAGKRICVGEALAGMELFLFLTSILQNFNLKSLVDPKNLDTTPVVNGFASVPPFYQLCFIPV
Sequence of CYP2D6 (P10635 whole entry): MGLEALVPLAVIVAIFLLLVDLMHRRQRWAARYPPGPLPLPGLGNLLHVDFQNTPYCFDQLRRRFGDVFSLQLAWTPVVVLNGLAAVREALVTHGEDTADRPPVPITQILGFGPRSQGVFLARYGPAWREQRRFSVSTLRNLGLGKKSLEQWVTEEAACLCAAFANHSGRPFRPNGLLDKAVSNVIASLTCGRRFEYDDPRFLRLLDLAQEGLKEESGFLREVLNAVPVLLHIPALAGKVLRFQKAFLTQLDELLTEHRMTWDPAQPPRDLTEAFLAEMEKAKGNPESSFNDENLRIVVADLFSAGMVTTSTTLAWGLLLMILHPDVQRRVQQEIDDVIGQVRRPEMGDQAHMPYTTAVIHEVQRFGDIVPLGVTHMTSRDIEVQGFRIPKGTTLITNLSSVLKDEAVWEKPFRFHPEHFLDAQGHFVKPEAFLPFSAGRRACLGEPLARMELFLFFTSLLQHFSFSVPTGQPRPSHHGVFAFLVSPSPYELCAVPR
Sequence of CYP2C19 (P33261 whole entry): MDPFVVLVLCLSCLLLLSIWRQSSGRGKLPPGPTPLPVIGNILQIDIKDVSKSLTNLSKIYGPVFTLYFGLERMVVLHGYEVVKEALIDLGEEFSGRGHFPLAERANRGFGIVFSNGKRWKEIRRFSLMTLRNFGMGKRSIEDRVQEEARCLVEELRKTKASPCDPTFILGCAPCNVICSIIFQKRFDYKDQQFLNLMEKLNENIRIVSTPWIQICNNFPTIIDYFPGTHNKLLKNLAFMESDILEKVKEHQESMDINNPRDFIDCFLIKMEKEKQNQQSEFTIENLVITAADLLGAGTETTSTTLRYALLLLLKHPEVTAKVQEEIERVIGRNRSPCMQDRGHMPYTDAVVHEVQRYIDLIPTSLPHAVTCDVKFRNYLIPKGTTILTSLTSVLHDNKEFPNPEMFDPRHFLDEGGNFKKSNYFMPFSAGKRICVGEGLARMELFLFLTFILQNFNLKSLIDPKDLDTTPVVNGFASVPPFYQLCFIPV
Sequence of CYP3A4 (P08684 whole entry): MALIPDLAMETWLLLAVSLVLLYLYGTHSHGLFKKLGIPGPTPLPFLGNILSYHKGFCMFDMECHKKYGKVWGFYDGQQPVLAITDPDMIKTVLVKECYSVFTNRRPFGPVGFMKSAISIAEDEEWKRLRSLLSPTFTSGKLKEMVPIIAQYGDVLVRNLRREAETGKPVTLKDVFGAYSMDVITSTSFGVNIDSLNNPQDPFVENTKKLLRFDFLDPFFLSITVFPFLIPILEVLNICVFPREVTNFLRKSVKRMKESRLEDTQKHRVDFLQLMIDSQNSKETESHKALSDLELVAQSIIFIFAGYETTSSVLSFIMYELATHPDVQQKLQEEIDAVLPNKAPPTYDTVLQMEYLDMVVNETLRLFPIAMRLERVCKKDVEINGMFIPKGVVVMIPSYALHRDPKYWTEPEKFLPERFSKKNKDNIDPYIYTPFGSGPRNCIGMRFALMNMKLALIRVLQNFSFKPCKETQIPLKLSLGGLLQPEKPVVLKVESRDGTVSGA

Consider `CSc1nc(-c2ccc(F)cc2)c(-c2ccnc(N(Cc3ccccc3)Cc3ccccc3)c2)n1C`, for which the NA result in data set [1] and in data set [2] was “inactive” in each case.
Consider `CSc1nc(-c2ccc(F)cc2)c(-c2ccnc(NC(C)=O)c2)n1C`, for which the half-inhibitory concentration (IC50) (usually the concentration that gives 50% inhibition) in [3] turned out to be 75 nM; in data set [4], 500 nM; in [9], 12500 nM; in data set [11] it was 1100 nM; in data set [12], 10800 nM. Further, the inhibition – broadly, the change of the read-out against control, counted positive when it falls – at 10 µM in data set [5] came out at 32.4%; in data set [6], 13.4%; in [7], 16.5%; in data set [8] it was 20.3%; in data set [10], 27.6%.
With `CSc1nc(-c2ccc(F)cc2)c(-c2ccnc(NC(C)=O)c2)n1C1CC(C)(C)NC(C)(C)C1`, the half-inhibitory concentration (IC50) in data set [3] stood at 460 nM; in data set [4], 340 nM; in [9] it was 5400 nM; in data set [11], 4500 nM; in data set [12] it was 2150 nM. The inhibition at 10 µM in data set [5] is less than 0%; in data set [6] it was 14.6%; in data set [7], 79%; in data set [8], 7.6%; in data set [10], 2.6%.
As to `CSc1nc(-c2ccc(F)cc2)c(-c2ccncc2)[nH]1`, the concentration for half-maximal inhibition (IC50) worked out at 44 nM in data set [3]; 630 nM in data set [4]; 4200 nM in data set [9]; 900 nM in [11]; 1200 nM in data set [12]. Further, the inhibition at 10 µM in data set [5] came out at 43.5%; in [6], 39.8%; in [7] it was 81.4%; in [8], 79.5%; in data set [10] it was 72.4%.
For the compound `CSc1nc(-c2ccc(F)cc2)c(-c2ccnc(OC(C)C)c2)[nH]1`, the 50% inhibitory concentration (IC50) in data set [3] was determined as 47 nM; in data set [4], 560 nM; in data set [9], 7200 nM; in data set [11], 400 nM; in data set [12], 2200 nM. Further, the inhibition at 10 µM in data set [5] was 83.2%; in data set [6], less than 0%; in data set [7], 49.6%; in [8], 62.6%; in data set [10] it was 67.5%.
